Test results published in US20250388643A1, “GLUCAGON-LIKE PEPTIDE-2 COMPOSITIONS AND METHODS OF MAKING AND USING SAME” (Amunix Pharmaceuticals, Inc., priority 2011, published 2025).
Like-named read-outs stand apart in the source and are kept apart here.

Columns and labels:
[1] = tested on: DSS-induced intestinal colitis in C57Bl/6 mice; assay: Murine acute DSS-induced colitis model; format: in vivo, mouse; details: DSS-treated mice
Protocol: To determine the efficacy of GLP2-XTEN, the GLP2-2G-XTEN-AE864 fusion protein was evaluated in a mouse model of intestinal inflammatory colitis. […] A naïve, non-treated control group (group 1) was given normal drinking water for the duration of the experiment. […] Tissues were fixed in formalin and then transferred to ethanol for staining and histopathology. The anatomical data was analyzed with an ANOVA model with a Tukey/Kramer post-hoc test for pairwise comparisons, with significance at p=0.05.

[2] = tested on: small intestine growth in rats; assay: Intestinotrophic growth in normal rats (small intestine weight and length); format: in vivo, rat; details: normal Sprague-Dawley rats, SC 12 days; peptide 12.5 nmol/kg twice daily, fusion protein 25 nmol/kg once daily
Protocol: To determine the intestinotrophic properties of GLP2-XTEN, small intestine growth in rats was measured as a primary pharmacodynamic endpoint. […] GLP2-2G-XTEN was dosed at 25 nmol/kg once daily for 12 days. After sacrifice, a midline incision was made, the small intestines were removed, stretched to their maximum length and the length recorded. The fecal material was flushed from the lumen and the small intestinal wet weight recorded. The small intestine length and weight data were analyzed with an ANOVA model with a Tukey/Kramer post-hoc test for pairwise comparisons, with significance at p=0.05.

[3] = tested on: indomethacin-induced intestinal inflammation in Wistar rats; assay: Rat Crohn's Disease indomethacin-induced intestinal inflammation model, Study 3; format: in vivo
Protocol: Study 3: A third indomethacin-induced inflammation study was performed to verify previous results and test additional dose regimens. Intestinal inflammation was induced in male Wistar rats (Harlan Sprague Dawley) using indomethacin administered on Days 0 and 1 of the experiment according to Table 21.
All treatments were administered per the schedule starting on Day-3 of the experiment. Body weights were determined daily. On Day 2 (24 hours post-2nd indomethacin dose), the animals were prepped for sacrifice and analysis. The small intestines were removed and the length of each was recorded. Quantitative histopathology was performed on a subset of samples. Rat small intestine samples consisted of a 3 cm section of proximal jejunum and a 3 cm section of mid-jejunum collected 15 cm and 30 cm from the pylorus, respectively. Samples were fixed in 10% neutral buffered formalin. Samples were trimmed into multiple sections without bias toward lesion presence or absence. These sections were placed in cassettes, embedded in paraffin, microtomed at approximately 4 microns thickness, and stained with hematoxylin and eosin (H&E). The slides were evaluated microscopically by a board certified veterinary pathologist and scored for villous height as well as infiltration/inflammation, mucosal atrophy, villi/crypt appearance, abscesses/ulceration. A 1 to 4 severity grading scale was used, where 1=minimal, 2=mild, 3=moderate, 4=marked/severe, reflecting the combination of the cellular reactions seen histopathologically. Small intestine length was analyzed with an ANOVA model with a Tukey/Kramer post-hoc test for pairwise comparisons, with significance at p=0.05. Non-parametric histology score variables were compared with the vehicle control using a Mann Whitney U test with a Bonferroni correction for the p-value to create an overall alpha of 0.05.

[4] = tested on: indomethacin-induced intestinal inflammation in Wistar rats; assay: Rat Crohn's Disease indomethacin-induced intestinal inflammation model, Study 1; format: in vivo
Protocol: To determine the efficacy of GLP2-XTEN using single dose or qd dosing, the GLP2-2G-XTEN-AE864 fusion protein was evaluated in a rat model of Crohn's Disease of indomethacin-induced intestinal inflammation in three separate studies.
Study 1: Intestinal inflammation was induced in eighty male Wistar rats (Harlan Sprague Dawley) using indomethacin administered on Days 0 and 1 of the experiment. The rats were divided into seven treatment groups for treatment according to Table 19.
All treatments were administered per the schedule starting on Day −3 of the experiment. Body weights were determined daily. Groups 3 and 5 were dosed equimolar/day. On Day 2 (24 hours post-2nd indomethacin dose), the animals were prepped for sacrifice and analysis. Thirty minutes prior to sacrifice, the rats were injected intravenously with 1 ml 1% Evans Blue dye, in order to visualize ulcers and extent of inflammation by histopathology analysis. The rats were anesthetized (SOP 1810), blood samples were removed to determine the concentration of GLP-2-2G-XTEN using the anti-XTEN/anti-GLP2 ELISA method. The rats were euthanized then necropsied and scored by gross examination of the intestines for the presence of adhesions; i.e., none=0, mild=1, moderate=2, or severe=3. The small intestines were removed and the length of each was recorded. In each small intestine, a longitudinal incision was made and the interior was examined. The degree and length of the ulcerated area was recorded as a score; i.e., none=0, few=1, multiple=2, or continuous=3. For TNFα determination, intestinal samples were thawed and homogenized in a total of 20 ml with DPBS. The supernatants were equilibrated to room temperature and assayed for TNFα by ELISA (R&D Systems, Cat. RTA00, lot 281687, exp. 7 Sep. 2011). The samples for Group 1 were assayed undiluted. The samples for Groups 2-7 were diluted 1:4. For histopathology, the small intestines were gently washed with saline to remove the fecal material and were blotted to remove excess fluid. Each small intestine was weighed then processed for histopathology examination to quantitate the degree of inflammation; i.e., 0.0%=0, 1-33%=1, 34-66%=2, 67-100%=3.

[5] = tested on: indomethacin-induced intestinal inflammation in Wistar rats; format: in vivo, rat
Protocol: Study 2: Intestinal inflammation was induced in eighty male Wistar rats (Harlan Sprague Dawley) using indomethacin administered on Days 0 and 1 of the experiment. The rats were divided into eight treatment groups for treatment according to Table 20. All treatments were administered per the schedule starting on Day-3 of the experiment. Body weights were determined daily. On Day 2 (24 hours post-2nd indomethacin dose), the animals were prepped for sacrifice and analysis. Thirty minutes prior to sacrifice, the rats were injected intravenously with 1 ml 1% Evans Blue dye, in order to visualize ulcers and extent of inflammation by histopathology analysis. The rats were anesthetized and blood samples were removed to determine the concentration of GLP-2-2G-XTEN using the anti-XTEN/anti-GLP2 ELISA method. The rats were euthanized then necropsied and scored by gross examination of the intestines for the presence of adhesions; i.e., none=0, mild=1, moderate=2, or severe=3. The small intestines were removed and the length of each was recorded. In each small intestine, a longitudinal incision was made and the interior was examined. The degree and length of the ulcerated area was recorded as a score; i.e., none=0, few=1, multiple=2, or continuous=3. The fecal material was washed away with saline and blotted to remove excess fluid and each small intestine was weighed then processed for histopathology examination to quantitate the degree of inflammation; i.e., 0.0%=0, 1-33%=1, 34-66%=2, 67-100%=3.

[6] = cited from earlier work; for terminal half-life: in humans

## CC[C@H](C)[C@H](NC(=O)[C@H](Cc1ccccc1)NC(=O)[C@H](CC(=O)O)NC(=O)[C@H](CCCNC(=N)N)NC(=O)[C@H](C)NC(=O)[C@H](C)NC(=O)[C@H](CC(C)C)NC(=O)[C@H](CC(N)=O)NC(=O)[C@H](CC(=O)O)NC(=O)[C@H](CC(C)C)NC(=O)[C@@H](NC(=O)[C@@H](NC(=O)[C@H](CC(N)=O)NC(=O)[C@H](CCSC)NC(=O)[C@H](CCC(=O)O)NC(=O)[C@H](CC(=O)O)NC(=O)[C@H](CO)NC(=O)[C@H](Cc1ccccc1)NC(=O)[C@H](CO)NC(=O)CNC(=O)[C@H](CC(=O)O)NC(=O)CNC(=O)[C@@H](N)Cc1c[nH]cn1)[C@@H](C)O)[C@@H](C)CC)C(=O)N[C@@H](CC(N)=O)C(=O)N[C@@H](Cc1c[nH]c2ccccc12)C(=O)N[C@@H](CC(C)C)C(=O)N[C@H](C(=O)N[C@@H](CCC(N)=O)C(=O)N[C@H](C(=O)N[C@@H](CCCCN)C(=O)N[C@H](C(=O)N[C@H](C(=O)N[C@@H](CC(=O)O)C(=O)O)[C@@H](C)O)[C@@H](C)CC)[C@@H](C)O)[C@@H](C)CC [GLP2-2G peptide, reference compound]
[1]; BID days 1-10
  growth in the assayed tissues (colon, small intestine, stomach): did not induce significant growth
[1]; SC days 1-10, peptide BID, fusion protein QD, any dose
  loss of body weight: neither the mice treated with GLP2-2G peptide nor any of the groups of mice treated with any dose of GLP2-2G-XTEN mice showed a reduced loss of body weight
[2]
  increase in small intestine length: no significant effects
  increase in small intestine weight: 24%
[3]; fusion protein high (total dose 125 nmol/kg) and low (total dose 75 nmol/kg), FIG. 24B
  villi height: not significant
[3]; three treatment groups
  mucosal ulceration and mixed cell infiltrate: not significant
[4]; 0.5 mg/kg peptide, both fusion protein groups, compared to diseased control Group 2, FIG. 21C
  small intestine weight: significant increase
[4]; FIG. 21B
  small intestine length: significant increase
[4]; FIG. 21D
  ulceration (gross pathology scoring of small intestine): significant decreases in ulceration
[4]; FIG. 21F
  small intestine inflammation score: neither the GLP-2-2G peptide nor the GLP-2-2G-XTEN fusion protein treatments showed a significant effect on inflammation
[4]; compared to disease control (Group 2), FIG. 21A
  body weight at termination: did not have a significant increase in body weight
[4]; compared to diseased control (Group 2), FIG. 21E
  scores of adhesions and transulceration: significant decreases
[4]; compared to diseased control Group 2, FIG. 21G
  TNFα in small intestine (ELISA): significantly decreased cytokine levels
[5]; daily bid peptide, once-daily fusion protein
  histopathology: protective effects: most pronounced in the ileum, but were also seen in the jejunum
[5]; once-daily fusion protein, daily bid peptide, FIG. 22B
  adhesions score: reached statistically significant difference
[5]; once-daily fusion protein, daily bid peptide, vs indomethacin-treated vehicle control
  small intestine length: reached statistically significant difference
[5]; peptide delivered bid, fusion protein delivered qd, vs indomethacin-treated vehicle control
  total disease score: significantly improved scores

## CC[C@H](C)[C@H](NC(=O)[C@H](Cc1ccccc1)NC(=O)[C@H](CC(=O)O)NC(=O)[C@H](CCCNC(=N)N)NC(=O)[C@H](C)NC(=O)[C@H](C)NC(=O)[C@H](CC(C)C)NC(=O)[C@H](CC(N)=O)NC(=O)[C@H](CC(=O)O)NC(=O)[C@H](CC(C)C)NC(=O)[C@@H](NC(=O)[C@@H](NC(=O)[C@H](CC(N)=O)NC(=O)[C@H](CCSC)NC(=O)[C@H](CCC(=O)O)NC(=O)[C@H](CC(=O)O)NC(=O)[C@H](CO)NC(=O)[C@H](Cc1ccccc1)NC(=O)[C@H](CO)NC(=O)CNC(=O)[C@H](CC(=O)O)NC(=O)CNC(=O)[C@@H](N)Cc1c[nH]cn1)[C@@H](C)O)[C@@H](C)CC)C(=O)N[C@@H](CC(N)=O)C(=O)N[C@@H](Cc1c[nH]c2ccccc12)C(=O)N[C@@H](CC(C)C)C(=O)N[C@H](C(=O)N[C@@H](CCC(N)=O)C(=O)N[C@H](C(=O)N[C@@H](CCCCN)C(=O)N[C@H](C(=O)N[C@H](C(=O)N[C@@H](CC(=O)O)C(=O)O)[C@@H](C)O)[C@@H](C)CC)[C@@H](C)O)[C@@H](C)CC [teduglutide]
[6]; reported (Marier 2008)
  terminal half-life: 3.2 h
[6]; reported (Marier 2010)
  terminal half-life: 0.9 to 2.3 h
  half life: 54 to 138 min

## native GLP-2: human glucagon-like peptide-2, 33 amino acids, HADGSFSDEMNTILDNLAARDFINWLIQTKITD (SEQ ID NO: 2)
[6]; human, in vivo
  half-life (terminal half-life in humans): approximately seven minutes
